Where two headings read alike, the source gives them in different places.
Experiments:
Assay in all cases: Test A postemergence
Format in all cases: in vivo
[1] = tested on: ragweed (common ragweed, Ambrosia elatior); conditions: Ambrosia artemisiifolia, post-emergence, 240 h; for pest or weed control at 125 g/ha: 125 g ai/ha; for pest or weed control at 500 g/ha: 500 g ai/ha, visual injury, approx. 10 d
In short: (§1)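 In a loam soil and sand blend, planted seeds got a preemergence directed soil spray, and young plants at the one- to two-leaf stage, 2–10 cm high, got a postemergence application; ~10 d greenhouse hold; injury rated visually, 0 = none, 100 = complete control.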

[2] = tested on: Galium (catchweed bedstraw, Galium aparine); conditions: Galium, post-emergence, 240 h; for pest or weed control at 125 g/ha: 125 g ai/ha; for pest or weed control at 500 g/ha: 500 g ai/ha, visual injury, approx. 10 d
In short: as §1

[3] = tested on: blackgrass (Alopecurus myosuroides); conditions: Alopecurus myosuroides, post-emergence, 240 h; for pest or weed control at 125 g/ha: 125 g ai/ha
In short: as §1

[4] = tested on: wheat (Triticum aestivum); conditions: Triticum aestivum, post-emergence, 240 h; for plant injury at 125 g/ha: 125 g ai/ha; for plant injury at 500 g/ha: 500 g ai/ha, visual injury, approx. 10 d
In short: as §1

[5] = tested on: barnyardgrass (Echinochloa crus-galli); conditions: Echinochloa crus-galli, post-emergence, 240 h; for pest or weed control at 125 g/ha: 125 g ai/ha; for pest or weed control at 500 g/ha: 500 g ai/ha, visual injury, approx. 10 d
In short: as §1

corn (Zea mays) = conditions: Zea mays, post-emergence, 240 h; for Corn plant response rating (crop injury, 0 = no effect, 100 = complete kill) at 125 g/ha / plant injury at 125 g/ha: 125 g ai/ha; for Corn plant response rating (crop injury, 0 = no effect, 100 = complete kill) at 125 g/ha: postemergence, visual injury after approximately 10 d; for Corn plant response rating (crop injury, 0 = no effect, 100 = complete kill) at 125 g/ha / Corn plant response rating (crop injury, 0 = no effect, 100 = complete kill) at 500 g/ha: 0 to 100 scale (0 no effect, 100 complete control); for plant injury at 125 g/ha / Corn plant response rating (crop injury, 0 = no effect, 100 = complete kill) at 500 g/ha: Postemergence; for plant injury at 125 g/ha: visual rating about 10 d after treatment, read-out: Corn plant response rating (0 to 100 scale); for Corn plant response rating (crop injury, 0 = no effect, 100 = complete kill) at 500 g/ha: 500 g ai/ha, visual injury, approx. 10 d
In short: as §1

[6] = postemergence, visual injury after approximately 10 d, 0 to 100 scale (0 no effect, 100 complete control), read-out: Plant response rating, Ragweed
[7] = postemergence, visual injury after approximately 10 d, 0 to 100 scale (0 no effect, 100 complete control), read-out: Plant response rating, Galium
[8] = postemergence, visual injury after approximately 10 d, 0 to 100 scale (0 no effect, 100 complete control), read-out: Plant response rating, Blackgrass
[9] = postemergence, visual injury after approximately 10 d, 0 to 100 scale (0 no effect, 100 complete control), read-out: Plant response rating, Wheat
[10] = postemergence, visual injury after approximately 10 d, 0 to 100 scale (0 no effect, 100 complete control), read-out: Plant response rating, Barnyardgrass
[11] = Postemergence, visual rating about 10 d after treatment, read-out: Ragweed plant response rating (0 to 100 scale)
[12] = Postemergence, 0 to 100 scale (0 no effect, 100 complete control), read-out: Plant response rating, Ragweed
[13] = Postemergence, visual rating about 10 d after treatment, read-out: Galium plant response rating (0 to 100 scale)
[14] = Postemergence, 0 to 100 scale (0 no effect, 100 complete control), read-out: Plant response rating, Galium
[15] = Postemergence, visual rating about 10 d after treatment, read-out: Wheat plant response rating (0 to 100 scale)
[16] = Postemergence, 0 to 100 scale (0 no effect, 100 complete control), read-out: Plant response rating, Wheat
[17] = Postemergence, visual rating about 10 d after treatment, read-out: Barnyardgrass plant response rating (0 to 100 scale, 0 no effect, 100 complete control)
[18] = Postemergence, 0 to 100 scale (0 no effect, 100 complete control), read-out: Plant response rating, Barnyardgrass

Row | SMILES | pest or weed control at 125 g/ha [1, 6] [%] | pest or weed control at 125 g/ha [2, 7] [%] | pest or weed control at 125 g/ha [3, 8] [%] | plant injury at 125 g/ha [4, 9] [%] | pest or weed control at 125 g/ha [5, 10] [%] | Corn plant response rating (crop injury, 0 = no effect, 100 = complete kill) at 125 g/ha (corn (Zea mays)) [%] | pest or weed control at 125 g/ha [1, 11] [%] | pest or weed control at 500 g/ha [1, 12] [%] | pest or weed control at 125 g/ha [2, 13] [%] | pest or weed control at 500 g/ha [2, 14] [%] | pest or weed control at 125 g/ha ([3]; Postemergence, visual rating about 10 d after treatment, read-out: Blackgrass plant response rating (0 to 100 scale)) [%] | pest or weed control at 500 g/ha ([3]; Postemergence, 500 g ai/ha, visual injury, 0 to 100 scale (0 no effect, 100 complete control), approx. 10 d, read-out: Plant response rating, Blackgrass) [%] | plant injury at 125 g/ha [4, 15] [%] | plant injury at 500 g/ha [4, 16] [%] | pest or weed control at 125 g/ha [5, 17] [%] | pest or weed control at 500 g/ha [5, 18] [%] | plant injury at 125 g/ha (corn (Zea mays)) [%] | Corn plant response rating (crop injury, 0 = no effect, 100 = complete kill) at 500 g/ha (corn (Zea mays)) [%]
1 | CN1C[C@H](c2ccc(C#N)cc2)[C@@H](C(=O)Nc2cccc(F)c2F)C1=O (racemic) [Compound 775] | 20 | 40 | 0 | 20 | 50 | 20 | – | – | – | – | – | – | – | – | – | – | – | –
2 | CN1C[C@H](c2cccc(S(C)(=O)=O)c2)[C@@H](C(=O)Nc2cccc(F)c2F)C1=O (racemic) [Compound 777] | 0 | 0 | 0 | 30 | 70 | 40 | – | – | – | – | – | – | – | – | – | – | – | –
3 | CO[C@]1(C(=O)Nc2cccc(F)c2F)C(=O)N(C)C[C@@H]1c1ccc(C(F)(F)F)cc1 (racemic) [Compound 1334] | – | – | – | – | – | – | 0 | 20 | 50 | 50 | 0 | 0 | 0 | 0 | 0 | 50 | 0 | 30
4 | COc1ccc([C@H]2CNC(=O)[C@@H]2C(=O)Nc2ccccc2S(C)(=O)=O)cc1F [Compound 721] | 0 | 20 | 0 | 0 | 10 | 0 | – | – | – | – | – | – | – | – | – | – | – | –
5 | O=C1NC[C@H](c2ccc(C3CC3)cc2)[C@H]1C(=O)Nc1ccccc1F [Compound 727] | 0 | 0 | 30 | 0 | 80 | 0 | – | – | – | – | – | – | – | – | – | – | – | –
6 | Cc1ccc([C@H]2CN(C)C(=O)[C@@H]2C(=O)Nc2cccc(F)c2F)c(F)c1 [Compound 730] | 20 | 50 | 50 | 30 | 100 | 20 | – | – | – | – | – | – | – | – | – | – | – | –
7 | Cc1ccc([C@H]2CN(C)C(=O)[C@@H]2C(=O)Nc2ccccc2S(C)(=O)=O)cc1C [Compound 734] | 10 | 30 | 20 | 50 | 90 | 40 | – | – | – | – | – | – | – | – | – | – | – | –
8 | CCc1cc(CC)cc([C@H]2CN(C)C(=O)[C@@H]2C(=O)Nc2ccccc2F)c1 [Compound 735] | 0 | 40 | 50 | 50 | 90 | 80 | – | – | – | – | – | – | – | – | – | – | – | –
9 | CCc1cc(CC)cc([C@H]2CN(C)C(=O)[C@@H]2C(=O)Nc2cccc(F)c2F)c1 [Compound 736] | 0 | 50 | 60 | 50 | 90 | 90 | – | – | – | – | – | – | – | – | – | – | – | –
10 | CN1C[C@H](c2ccc(F)c(OC(F)(F)C(F)F)c2)[C@@H](C(=O)Nc2ccccc2F)C1=O [Compound 740] | 0 | 50 | 30 | 50 | 90 | 70 | – | – | – | – | – | – | – | – | – | – | – | –
11 | CN1C[C@H](c2cccc(C(F)(F)F)c2)[C@@H](C(=O)Nc2ccccc2C2CC2)C1=O [Compound 749] | 0 | 0 | 0 | 0 | 0 | 0 | – | – | – | – | – | – | – | – | – | – | – | –
12 | O=C1NC[C@H](c2csc3ccccc23)[C@H]1C(=O)Nc1ccccc1F [Compound 750] | 0 | 0 | 0 | 0 | 70 | 0 | – | – | – | – | – | – | – | – | – | – | – | –
13 | O=C1NC[C@H](c2csc3ccccc23)[C@H]1C(=O)Nc1cccc(F)c1F [Compound 751] | 0 | 40 | 20 | 0 | 60 | 0 | – | – | – | – | – | – | – | – | – | – | – | –
14 | Cc1ccc(NC(=O)[C@H]2C(=O)N(C)C[C@@H]2c2cc(F)cc(F)c2)c(F)c1 [Compound 760] | 0 | 0 | 0 | 0 | 80 | 0 | – | – | – | – | – | – | – | – | – | – | – | –
15 | Cc1ccc([C@H]2CNC(=S)[C@@H]2C(=O)Nc2cccc(F)c2F)cc1C [Compound 765] | 0 | 0 | 0 | 0 | 70 | 0 | – | – | – | – | – | – | – | – | – | – | – | –
16 | COc1cc([C@H]2CN(C)C(=O)[C@@H]2C(=O)Nc2ccccc2SC)ccc1C(F)(F)F [Compound 769] | 0 | 50 | 0 | 0 | 50 | 0 | – | – | – | – | – | – | – | – | – | – | – | –
17 | CN1C[C@H](c2ccc(OC(F)F)cc2)[C@@H](C(=O)Nc2ccccc2S(C)(=O)=O)C1=O [Compound 788] | 40 | 50 | 20 | – | 80 | 20 | – | – | – | – | – | – | – | – | – | – | – | –
18 | O=C1NC[C@H](c2ccc(OC(F)F)cc2)[C@H]1C(=O)Nc1ccc(F)cc1F [Compound 1325] | – | – | – | – | – | – | 0 | 0 | 80 | 90 | – | – | 0 | 0 | 90 | 90 | 0 | 50
19 | O=C1NCC(c2ccccc2)C1C(=O)Nc1cccnc1 (stereo not drawn) [Compound 1356] | – | – | – | – | – | – | – | – | – | – | – | – | 0 | 0 | 0 | 0 | 0 | 0
20 | O=C1NCC(c2ccccc2)C1C(=O)Nc1ccccc1Oc1ccccc1 (stereo not drawn) [Compound 1357] | – | – | – | – | – | – | – | – | – | – | – | – | 0 | 0 | 0 | 0 | 0 | 0
